{
  "source": "ChEMBL document CHEMBL3994622",
  "about": "“Design and synthesis of new RAF kinase-inhibiting antiproliferative quinoline derivatives. Part 2: Diarylurea derivatives” (Eur J Med Chem, 2017)",
  "key": {"HOP-92 [1]": {"test_system": "HOP-92", "assay": "Growth inhibition of human HOP92 cells assessed as cell growth at 0.005 uM incubated for 48 hrs by sulforhodamine B assay relative to control", "type": "functional", "settings": "HOP-92, 48 h, read-out: Activity"}, "M14": {"test_system": "M14", "assay": "Growth inhibition of human M14 cells assessed as cell growth at 5 uM incubated for 48 hrs by sulforhodamine B assay relative to control", "type": "functional", "settings": "M14, 48 h, read-out: Activity"}, "OVCAR-4 [2]": {"test_system": "OVCAR-4", "assay": "Growth inhibition of human OVCAR4 cells assessed as cell growth at 0.005 uM incubated for 48 hrs by sulforhodamine B assay relative to control", "type": "functional", "settings": "OVCAR-4, 48 h, read-out: Activity"}, "K562 [3]": {"test_system": "K562", "assay": "Growth inhibition of human K562 cells assessed as cell growth at 50 uM incubated for 48 hrs by sulforhodamine B assay relative to control", "type": "functional", "settings": "K562, 48 h, read-out: Activity"}, "PC-3": {"test_system": "PC-3", "assay": "Growth inhibition of human PC3 cells assessed as cell growth at 0.5 uM incubated for 48 hrs by sulforhodamine B assay relative to control", "type": "functional", "settings": "PC-3, 48 h, read-out: Activity"}, "RPMI-8226": {"test_system": "RPMI-8226", "assay": "Growth inhibition of human RPMI8226 cells assessed as cell growth at 0.5 uM incubated for 48 hrs by sulforhodamine B assay relative to control", "type": "functional", "settings": "RPMI-8226, 48 h, read-out: Activity"}, "OVCAR-5": {"test_system": "OVCAR-5", "assay": "Growth inhibition of human OVCAR5 cells assessed as cell growth at 5 uM incubated for 48 hrs by sulforhodamine B assay relative to control", "type": "functional", "settings": "OVCAR-5, 48 h, read-out: Activity"}, "SK-MEL-5": {"test_system": "SK-MEL-5", "assay": "Growth inhibition of human SK-MEL-5 cells assessed as cell growth at 0.5 uM incubated for 48 hrs by sulforhodamine B assay relative to control", "type": "functional", "settings": "SK-MEL-5, 48 h, read-out: Activity"}, "HOP-92 [4]": {"test_system": "HOP-92", "assay": "Growth inhibition of human HOP92 cells assessed as cell growth at 5 uM incubated for 48 hrs by sulforhodamine B assay relative to control", "type": "functional", "settings": "HOP-92, 48 h, read-out: Activity"}, "SN12C": {"test_system": "SN12C", "assay": "Growth inhibition of human SN12C cells assessed as cell growth at 50 uM incubated for 48 hrs by sulforhodamine B assay relative to control", "type": "functional", "settings": "read-out: Activity"}, "HCC 2998 [5]": {"test_system": "HCC 2998", "assay": "Growth inhibition of human HCC2998 cells assessed as cell growth at 50 uM incubated for 48 hrs by sulforhodamine B assay relative to control", "type": "functional", "settings": "HCC 2998, 48 h, read-out: Activity"}, "HT-29": {"test_system": "HT-29", "assay": "Growth inhibition of human HT-29 cells assessed as cell growth at 0.05 uM incubated for 48 hrs by sulforhodamine B assay relative to control", "type": "functional", "settings": "HT-29, 48 h, read-out: Activity"}, "LOX IMVI [6]": {"test_system": "LOX IMVI", "assay": "Growth inhibition of human LOXIMVI cells assessed as cell growth at 0.05 uM incubated for 48 hrs by sulforhodamine B assay relative to control", "type": "functional", "settings": "read-out: Activity"}, "NCI-H226 [7]": {"test_system": "NCI-H226", "assay": "Growth inhibition of human NCI-H226 cells assessed as cell growth at 50 uM incubated for 48 hrs by sulforhodamine B assay relative to control", "type": "functional", "settings": "NCI-H226, 48 h, read-out: Activity"}, "HCC 2998 [8]": {"test_system": "HCC 2998", "assay": "Growth inhibition of human HCC2998 cells assessed as cell growth at 0.5 uM incubated for 48 hrs by sulforhodamine B assay relative to control", "type": "functional", "settings": "HCC 2998, 48 h, read-out: Activity"}, "LOX IMVI [9]": {"test_system": "LOX IMVI", "assay": "Growth inhibition of human LOXIMVI cells assessed as cell growth at 0.005 uM incubated for 48 hrs by sulforhodamine B assay relative to control", "type": "functional", "settings": "read-out: Activity"}, "Hs-578T": {"test_system": "Hs-578T", "assay": "Growth inhibition of human Hs 578T cells assessed as cell growth at 50 uM incubated for 48 hrs by sulforhodamine B assay relative to control", "type": "functional", "settings": "read-out: Activity"}, "A549": {"test_system": "A549", "assay": "Growth inhibition of human A549/ATCC cells assessed as cell growth at 0.5 uM incubated for 48 hrs by sulforhodamine B assay relative to control", "type": "functional", "settings": "A549, 48 h, read-out: Activity"}, "SK-OV-3": {"test_system": "SK-OV-3", "assay": "Growth inhibition of human SKOV3 cells assessed as cell growth at 50 uM incubated for 48 hrs by sulforhodamine B assay relative to control", "type": "functional", "settings": "SK-OV-3, 48 h, read-out: Activity"}, "CAKI-1": {"test_system": "CAKI-1", "assay": "Growth inhibition of human Caki1 cells assessed as cell growth at 0.005 uM incubated for 48 hrs by sulforhodamine B assay relative to control", "type": "functional", "settings": "CAKI-1, 48 h, read-out: Activity"}, "NCI-H23": {"test_system": "NCI-H23", "assay": "Growth inhibition of human NCI-H23 cells assessed as cell growth at 5 uM incubated for 48 hrs by sulforhodamine B assay relative to control", "type": "functional", "settings": "NCI-H23, 48 h, read-out: Activity"}, "K562 [10]": {"test_system": "K562", "assay": "Growth inhibition of human K562 cells assessed as cell growth at 5 uM incubated for 48 hrs by sulforhodamine B assay relative to control", "type": "functional", "settings": "K562, 48 h, read-out: Activity"}, "UO-31": {"test_system": "UO-31", "assay": "Growth inhibition of human UO31 cells assessed as cell growth at 50 uM incubated for 48 hrs by sulforhodamine B assay relative to control", "type": "functional", "settings": "UO-31, 48 h, read-out: Activity"}, "Malme-3M": {"test_system": "Malme-3M", "assay": "Growth inhibition of human MALME-3M cells assessed as cell growth at 0.5 uM incubated for 48 hrs by sulforhodamine B assay relative to control", "type": "functional", "settings": "read-out: Activity"}, "OVCAR-4 [11]": {"test_system": "OVCAR-4", "assay": "Growth inhibition of human OVCAR4 cells assessed as cell growth at 5 uM incubated for 48 hrs by sulforhodamine B assay relative to control", "type": "functional", "settings": "OVCAR-4, 48 h, read-out: Activity"}, "HOP-62": {"test_system": "HOP-62", "assay": "Growth inhibition of human HOP62 cells assessed as cell growth at 0.5 uM incubated for 48 hrs by sulforhodamine B assay relative to control", "type": "functional", "settings": "HOP-62, 48 h, read-out: Activity"}, "786-0": {"test_system": "786-0", "assay": "Growth inhibition of human 786-0 cells assessed as cell growth at 0.5 uM incubated for 48 hrs by sulforhodamine B assay relative to control", "type": "functional", "settings": "786-0, 48 h, read-out: Activity"}, "NCI-H226 [12]": {"test_system": "NCI-H226", "assay": "Growth inhibition of human NCI-H226 cells assessed as cell growth at 5 uM incubated for 48 hrs by sulforhodamine B assay relative to control", "type": "functional", "settings": "NCI-H226, 48 h, read-out: Activity"}, "MDA-MB-435": {"test_system": "MDA-MB-435", "assay": "Growth inhibition of human MDA-MB-435 cells assessed as cell growth at 0.5 uM incubated for 48 hrs by sulforhodamine B assay relative to control", "type": "functional", "settings": "MDA-MB-435, 48 h, read-out: Activity"}, "MCF7": {"test_system": "MCF7", "assay": "Growth inhibition of human MCF7 cells assessed as cell growth at 0.05 uM incubated for 48 hrs by sulforhodamine B assay relative to control", "type": "functional", "settings": "MCF7, 48 h, read-out: Activity"}, "LOX IMVI [13]": {"test_system": "LOX IMVI", "assay": "Growth inhibition of human LOXIMVI cells assessed as cell growth at 0.03 uM incubated for 48 hrs by sulforhodamine B assay relative to control", "type": "functional", "settings": "read-out: Activity"}, "[14]": {"biological_target": "RAC-alpha serine/threonine-protein kinase (Homo sapiens) (UniProt P31749)", "sequence (P31749 whole entry)": "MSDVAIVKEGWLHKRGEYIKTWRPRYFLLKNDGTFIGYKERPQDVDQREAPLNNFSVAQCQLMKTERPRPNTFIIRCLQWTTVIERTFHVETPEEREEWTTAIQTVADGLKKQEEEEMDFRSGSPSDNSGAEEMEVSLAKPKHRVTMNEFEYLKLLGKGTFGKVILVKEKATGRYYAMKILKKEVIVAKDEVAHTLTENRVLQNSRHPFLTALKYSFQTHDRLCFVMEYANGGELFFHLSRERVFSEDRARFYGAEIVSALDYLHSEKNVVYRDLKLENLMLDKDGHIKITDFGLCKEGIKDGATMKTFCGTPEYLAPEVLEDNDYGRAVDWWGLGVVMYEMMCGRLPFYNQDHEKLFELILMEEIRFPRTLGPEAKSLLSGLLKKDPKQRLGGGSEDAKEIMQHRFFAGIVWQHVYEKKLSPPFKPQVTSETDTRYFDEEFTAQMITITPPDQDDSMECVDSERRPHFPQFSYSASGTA", "assay": "Inhibition of human AKT1 at 10 uM using KGSGSGRPRTSSFAEG as substrate in presence of [33P]ATP by Hotspot assay relative to control"}, "MDA-MB-468": {"test_system": "MDA-MB-468", "assay": "Growth inhibition of human MDA-MB-468 cells assessed as cell growth at 100 uM incubated for 48 hrs by sulforhodamine B assay relative to control", "type": "functional", "settings": "MDA-MB-468, 48 h, read-out: Activity"}, "K562 [15]": {"test_system": "K562", "assay": "Growth inhibition of human K562 cells assessed as cell growth at 100 uM incubated for 48 hrs by sulforhodamine B assay relative to control", "type": "functional", "settings": "K562, 48 h, read-out: Activity"}},
  "data": [
    {"smiles": "COc1cc2cc(Oc3ccc(NC(=O)Nc4cccc(C(F)(F)F)c4)cc3)c(C)nc2cc1OC", "values": [
      {"measurement": "growth at 0.005 µM", "setting": "HOP-92 [1]", "result": 96, "unit": "%"},
      {"measurement": "growth at 5 µM", "setting": "M14", "result": 14, "unit": "%"},
      {"measurement": "growth at 0.005 µM", "setting": "OVCAR-4 [2]", "result": 92, "unit": "%"},
      {"measurement": "growth at 50 µM", "setting": "K562 [3]", "result": -16, "unit": "%"},
      {"measurement": "growth at 0.5 µM", "setting": "PC-3", "result": 88, "unit": "%"},
      {"measurement": "growth at 0.5 µM", "setting": "RPMI-8226", "result": 86, "unit": "%"},
      {"measurement": "growth at 5 µM", "setting": "OVCAR-5", "result": 31, "unit": "%"},
      {"measurement": "growth at 0.5 µM", "setting": "SK-MEL-5", "result": 93, "unit": "%"},
      {"measurement": "growth at 5 µM", "setting": "HOP-92 [4]", "result": -10, "unit": "%"},
      {"measurement": "growth at 50 µM", "setting": "SN12C", "result": -21, "unit": "%"},
      {"measurement": "growth at 50 µM", "setting": "HCC 2998 [5]", "result": 4, "unit": "%"},
      {"measurement": "growth at 0.05 µM", "setting": "HT-29", "result": 100, "unit": "%"},
      {"measurement": "growth at 0.05 µM", "setting": "LOX IMVI [6]", "result": 96, "unit": "%"},
      {"measurement": "growth at 50 µM", "setting": "NCI-H226 [7]", "result": -67, "unit": "%"},
      {"measurement": "growth at 0.5 µM", "setting": "HCC 2998 [8]", "result": 109, "unit": "%"},
      {"measurement": "growth at 0.005 µM", "setting": "LOX IMVI [9]", "result": 98, "unit": "%"},
      {"measurement": "growth at 50 µM", "setting": "Hs-578T", "result": -41, "unit": "%"},
      {"measurement": "growth at 0.5 µM", "setting": "A549", "result": 86, "unit": "%"},
      {"measurement": "growth at 50 µM", "setting": "SK-OV-3", "result": -37, "unit": "%"},
      {"measurement": "growth at 0.005 µM", "setting": "CAKI-1", "result": 98, "unit": "%"},
      {"measurement": "growth at 5 µM", "setting": "NCI-H23", "result": 9, "unit": "%"},
      {"measurement": "growth at 5 µM", "setting": "K562 [10]", "result": 13, "unit": "%"},
      {"measurement": "growth at 50 µM", "setting": "UO-31", "result": -24, "unit": "%"},
      {"measurement": "growth at 0.5 µM", "setting": "Malme-3M", "result": 108, "unit": "%"},
      {"measurement": "growth at 5 µM", "setting": "OVCAR-4 [11]", "result": 25, "unit": "%"},
      {"measurement": "growth at 0.5 µM", "setting": "HOP-62", "result": 100, "unit": "%"},
      {"measurement": "growth at 0.5 µM", "setting": "786-0", "result": 95, "unit": "%"},
      {"measurement": "growth at 5 µM", "setting": "NCI-H226 [12]", "result": 3, "unit": "%"},
      {"measurement": "growth at 0.5 µM", "setting": "MDA-MB-435", "result": 89, "unit": "%"},
      {"measurement": "growth at 0.05 µM", "setting": "MCF7", "result": 91, "unit": "%"}
    ]},
    {"smiles": "COc1cc2cc(Oc3ccc(NC(=O)Nc4ccc(Cl)c(C(F)(F)F)c4)cc3)c(C)nc2cc1OC", "values": [
      {"measurement": "growth at 0.03 µM", "setting": "LOX IMVI [13]", "result": 99, "unit": "%"},
      {"measurement": "inhibition", "setting": "[14]", "result": 0.06, "unit": "%"}
    ]},
    {"smiles": "COc1cc2cc(Oc3ccc(NC(=O)Nc4cc(C(F)(F)F)cc(C(F)(F)F)c4)cc3)c(C)nc2cc1OC", "values": [
      {"measurement": "growth at 100 µM", "setting": "MDA-MB-468", "result": -67, "unit": "%"},
      {"measurement": "growth at 100 µM", "setting": "K562 [15]", "result": -61, "unit": "%"}
    ]}
  ]
}
